Results reported in patent US20250206755A1, “ANTIMICROBIAL AGENTS” (RUTGERS, THE STATE UNIVERSITY OF NEW JERSEY, priority 2012, published 2025).

Tests used:
MSSA = test: Antibacterial assay, broth microdilution MIC (Test A); type: cell-based; details: Staphylococcus aureus, MIC values may be lower as solubility and aggregate formation may reduce observed activity
Method: (§1) Antibacterial activity can be determined as per Clinical and Laboratory Standards Institute (CLSI) guidelines using a broth microdilution assay in which log-phase bacteria are grown at 37° C. in appropriate medium containing two-fold serial dilutions of a compound to yield final concentrations ranging from 256 to 0.06 μg/mL. For determination of minimal inhibitory concentration (MIC) values, bacterial growth is monitored after 24 to 48 hours by measuring optical density at 600 nm.

MRSA = test: as above; type: cell-based; details: Staphylococcus aureus, MIC values may be lower as solubility and aggregate formation may reduce observed activity
Method: as §1

[1] = tested on: S. aureus ATCC 43300 (MRSA); test: In vivo efficacy, mouse peritonitis model of systemic infection (Test D), MRSA; details: mice, p.o., total dose 4.8 mg/mouse
[2] = tested on: S. aureus ATCC 19636 (MSSA); test: In vivo efficacy, mouse peritonitis model of systemic infection (Test D), MSSA; details: mice
Method: Antistaphylococcal efficacy in vivo was assessed in a mouse peritonitis model of systemic infection with S. aureus ATCC 19636 (MSSA) or ATCC 43300 (MRSA). These studies were conducted in full compliance with the standards established by the US National Research Council's Guide for the Care and Use of Laboratory Animals, and were approved by the Institutional Animal Care and Use Committee (IACUC) of Rutgers University. Groups of 4-6 female Swiss-Webster mice with an average weight of 25 g were infected intraperitoneally with a lethal inoculum of each bacterial strain in saline. The inoculum of S. aureus ATCC 43300 contained 1.0×10^8 CFUs/mL of bacteria, while the inoculum of S. aureus ATCC 19636 contained 0.8×10^7 CFUs/mL of bacteria. All the inocula also contained porcine mucin (Sigma-Aldrich, Co.) at a (w/v) percentage of 1.5% (in ATCC 19636 inocula) or 5% (in the ATCC 43300 inoculum). The differing compositions of the inocula of these S. aureus strains were selected based on the virulence of each strain, with MSSA ATCC 19636 being the more virulent strain and MRSA ATCC 43300 being the less virulent strain.
All compound and vehicle intravenous (i.v.) administrations were by tail vein injection, with 17 being formulated at 2.0 mg/mL and 44 being formulated at both 2.0 and 3.0 mg/ml in 10 mM citrate (pH 2.6).
In the MSSA ATCC 19636 experiments, the first dose of compound was administered 10 minutes after infection, with subsequent doses being administered at 12-minute intervals thereafter unless otherwise noted. In the MRSA studies, the first dose of compound was administered one hour after infection, with subsequent doses being administered at 12-minute intervals thereafter unless otherwise indicated.
The body temperatures of all mice were monitored for a period of 5 days after infection. Body temperatures were recorded at the Xiphoid process using a noninvasive infrared thermometer (Braintree Scientific, Inc., Braintree, MA). Infected mice with body temperatures ≤28.9° C. were viewed as being unable to recover from the infection and were euthanized.

[3] = 6x (no footnote: first dose one hour after infection, 12-minute intervals)
[4] = 6x, first dose 5 minutes prior to infection, subsequent doses 12 minutes apart
[5] = 6x, first dose 10 minutes post-infection, subsequent doses 12 minutes apart
[6] = i.v., 1x, total dose 0.6 mg/mouse, first dose immediately prior to infection
[7] = i.v., 2x, total dose 1.2 mg/mouse, first dose immediately prior to infection, subsequent doses 15 minutes following
[8] = p.o., 1x, total dose 0.8 mg/mouse, first dose 5 minutes prior to infection
[9] = p.o., 2x, total dose 1.6 mg/mouse, first dose 5 minutes prior to infection, subsequent doses 15 minutes apart
[10] = p.o., 4x, total dose 3.2 mg/mouse, first dose 5 minutes prior to infection, subsequent doses 15 minutes apart
[11] = i.v., 2x, total dose 1.8 mg/mouse
[12] = p.o., 1x, total dose 0.8 mg/mouse
[13] = p.o., 2x, total dose 1.6 mg/mouse
[14] = p.o., 3x, total dose 2.4 mg/mouse
[15] = p.o., 4x, total dose 3.2 mg/mouse

CCC(=O)NC(=O)c1c(F)ccc(OCc2nc3cc(Cl)ccc3s2)c1F [Example 5]
2 µg/mL: MIC (MSSA) | MIC (MRSA)

CN1CCC(C(=O)NC(=O)c2c(F)ccc(OCc3nc4cc(Cl)cnc4s3)c2F)CC1 [Example 17]
50%: Survival (%) 48 Hrs [1, 3] | Survival (%) 72 Hrs [1, 3]
0%: Survival (%) 24 Hrs [2, 6] | Survival (%) 48 Hrs [2, 6] | Survival (%) 72 Hrs [2, 6] | Survival (%) 24 Hrs [2, 7] | Survival (%) 48 Hrs [2, 7] | Survival (%) 72 Hrs [2, 7] | Survival (%) 24 Hrs [2, 8] | Survival (%) 48 Hrs [2, 8] | Survival (%) 72 Hrs [2, 8] | Survival (%) 24 Hrs [2, 9] | Survival (%) 48 Hrs [2, 9] | Survival (%) 72 Hrs [2, 9]
100%: Survival (%) 24 Hrs [1, 4] | Survival (%) 48 Hrs [1, 4] | Survival (%) 72 Hrs [1, 4] | Survival (%) 24 Hrs [1, 5] | Survival (%) 48 Hrs [1, 5] | Survival (%) 72 Hrs [1, 5] | Survival (%) 24 Hrs [2, 10] | Survival (%) 48 Hrs [2, 10] | Survival (%) 72 Hrs [2, 10]

CN1CCC(C(=O)NC(=O)c2c(F)ccc(OCc3nc4cc(C(F)(F)F)cnc4s3)c2F)CC1 [Example 44]
50%: Survival (%) 24 Hrs [2, 12] | Survival (%) 48 Hrs [2, 12] | Survival (%) 72 Hrs [2, 12]
100%: Survival (%) 24 Hrs [2, 11] | Survival (%) 48 Hrs [2, 11] | Survival (%) 72 Hrs [2, 11] | Survival (%) 24 Hrs [2, 13] | Survival (%) 48 Hrs [2, 13] | Survival (%) 72 Hrs [2, 13] | Survival (%) 24 Hrs [2, 14] | Survival (%) 48 Hrs [2, 14] | Survival (%) 72 Hrs [2, 14] | Survival (%) 24 Hrs [2, 15] | Survival (%) 48 Hrs [2, 15] | Survival (%) 72 Hrs [2, 15]
